PubChem BioAssay (NCI)
“And” between values parts separate entries of the source, which are not always exact repeats. Equal entries are not always repeated.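 Growth conditions: 96-well plates. Treatment: test compound, 48 hours, 5 concentrations. Analysis: linear interpolation between bracketing concentrations; unreached endpoints set to highest concentration. GI50: concentration for 50% inhibition of growth. TGI denotes the concentration required for complete inhibition of growth.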

How the values were obtained:
Assay in all cases: NCI-60 cell line screen, 48 h
A498 renal = tested on: A498 renal
CAKI-1 renal = tested on: CAKI-1 renal
HOP-62 NSCLC = tested on: HOP-62 NSCLC
HS 578T breast = tested on: HS 578T breast
MCF7 breast = tested on: MCF7 breast
OVCAR-8 ovarian = tested on: OVCAR-8 ovarian
SK-MEL-2 melanoma = tested on: SK-MEL-2 melanoma
SN12C renal = tested on: SN12C renal
UACC-257 melanoma = tested on: UACC-257 melanoma
UO-31 renal = tested on: UO-31 renal

COc1ccc2c(c1)C(=O)c1c-2n(CCCCl)c(=O)c2cc(N)ccc12
GI50 (A498 renal): > 100 µM
TGI (A498 renal): > 100 µM
GI50 (CAKI-1 renal): > 100 µM
TGI (CAKI-1 renal): > 100 µM
GI50 (HOP-62 NSCLC): > 100 µM
TGI (HOP-62 NSCLC): > 100 µM
GI50 (HS 578T breast): > 96.3 µM
TGI (HS 578T breast): > 100 µM
GI50 (MCF7 breast): 34.8 µM
TGI (MCF7 breast): > 100 µM
GI50 (OVCAR-8 ovarian): > 100 µM
TGI (OVCAR-8 ovarian): > 100 µM
GI50 (SK-MEL-2 melanoma): > 100 µM
TGI (SK-MEL-2 melanoma): > 100 µM
TGI (SN12C renal): 97.4 µM
GI50 (UACC-257 melanoma): > 100 µM
TGI (UACC-257 melanoma): > 100 µM
GI50 (UO-31 renal): > 100 µM
TGI (UO-31 renal): > 100 µM

Cc1cn(C2CC(O)C(COC(N)=O)O2)c(=O)[nH]c1=O (configuration not stated)
TGI (A498 renal): > 100 µM
TGI (CAKI-1 renal): > 100 µM
TGI (HOP-62 NSCLC): > 100 µM
TGI (HS 578T breast): > 100 µM
TGI (MCF7 breast): > 100 µM
TGI (OVCAR-8 ovarian): > 100 µM
TGI (SK-MEL-2 melanoma): > 100 µM
TGI (SN12C renal): > 100 µM
TGI (UACC-257 melanoma): > 100 µM
TGI (UO-31 renal): > 100 µM

CCS(=O)(=O)N1CCN(c2ccc(Nc3ncc(C(N)=O)c(NC4CC4)n3)cc2)CC1
GI50 (A498 renal): 4.32 µM
TGI (A498 renal): 8.97 µM
GI50 (CAKI-1 renal): 5.46 µM
TGI (CAKI-1 renal): 28.5 µM
GI50 (HOP-62 NSCLC): 3.51 µM
TGI (HOP-62 NSCLC): 29.7 µM
GI50 (HS 578T breast): 10.9 µM
TGI (HS 578T breast): 57.3 µM
GI50 (MCF7 breast): 4.77 µM
TGI (MCF7 breast): > 100 µM
GI50 (OVCAR-8 ovarian): 5.62 µM
TGI (OVCAR-8 ovarian): 88.1 µM
GI50 (SK-MEL-2 melanoma): 4.62 µM
TGI (SK-MEL-2 melanoma): 21.4 µM
GI50 (SN12C renal): 2.6 µM
TGI (SN12C renal): 49.6 µM
GI50 (UACC-257 melanoma): 21.2 µM
TGI (UACC-257 melanoma): > 100 µM
GI50 (UO-31 renal): 1.1 µM
TGI (UO-31 renal): 18.4 µM

CCOC(=O)c1cc2c(n1Cc1cc(OC)cc(OC)c1)-c1oncc1CC2
GI50 (A498 renal): 0.0532 µM
TGI (A498 renal): 0.779 µM
GI50 (CAKI-1 renal): 0.102 µM
TGI (CAKI-1 renal): > 100 µM
GI50 (HOP-62 NSCLC): 0.327 µM
TGI (HOP-62 NSCLC): > 100 µM
GI50 (HS 578T breast): 0.156 µM
TGI (HS 578T breast): > 96.2 µM
GI50 (MCF7 breast): 0.0492 µM
TGI (MCF7 breast): > 100 µM
GI50 (OVCAR-8 ovarian): 0.475 µM
TGI (OVCAR-8 ovarian): > 100 µM
GI50 (SK-MEL-2 melanoma): > 100 µM
TGI (SK-MEL-2 melanoma): > 100 µM
GI50 (SN12C renal): 0.994 µM
TGI (SN12C renal): > 100 µM
GI50 (UACC-257 melanoma): 47 µM
TGI (UACC-257 melanoma): > 100 µM
GI50 (UO-31 renal): 6.37 µM
TGI (UO-31 renal): > 100 µM

CC(C)(C)OC(=O)N1Cc2cc3ccccc3nc2C1CO (configuration not stated)
GI50 (A498 renal): > 100 µM
TGI (A498 renal): > 100 µM
GI50 (CAKI-1 renal): > 100 µM
TGI (CAKI-1 renal): > 100 µM
GI50 (HOP-62 NSCLC): > 100 µM
TGI (HOP-62 NSCLC): > 100 µM
GI50 (HS 578T breast): > 100 µM
TGI (HS 578T breast): > 100 µM
GI50 (MCF7 breast): > 100 µM
TGI (MCF7 breast): > 100 µM
GI50 (OVCAR-8 ovarian): > 100 µM
TGI (OVCAR-8 ovarian): > 100 µM
GI50 (SK-MEL-2 melanoma): > 100 µM
TGI (SK-MEL-2 melanoma): > 100 µM
GI50 (SN12C renal): > 100 µM
TGI (SN12C renal): > 100 µM
GI50 (UACC-257 melanoma): > 100 µM
TGI (UACC-257 melanoma): > 100 µM
GI50 (UO-31 renal): > 100 µM
TGI (UO-31 renal): > 100 µM

NC(Cc1c[nH]c2cccc(F)c12)C(=O)O (configuration not stated)
GI50 (A498 renal): 1150 µM
TGI (A498 renal): 3670 µM
GI50 (CAKI-1 renal): 1080 µM
TGI (CAKI-1 renal): > 4500 µM
TGI (HOP-62 NSCLC): 3180 µM
GI50 (HS 578T breast): 62.9 µM and 501 µM
TGI (HS 578T breast): > 4500 µM
GI50 (MCF7 breast): 35.4 µM and 327 µM
TGI (MCF7 breast): 1650 µM
GI50 (OVCAR-8 ovarian): 72.5 µM and 522 µM
TGI (OVCAR-8 ovarian): 2820 µM
TGI (SK-MEL-2 melanoma): > 4500 µM
GI50 (SN12C renal): 959 µM
TGI (SN12C renal): > 4500 µM
GI50 (UACC-257 melanoma): 1380 µM
TGI (UACC-257 melanoma): > 4500 µM
GI50 (UO-31 renal): 842 µM
TGI (UO-31 renal): > 4500 µM

CCSCCCC(=O)O
TGI (A498 renal): > 100 µM
TGI (CAKI-1 renal): > 100 µM
TGI (HOP-62 NSCLC): > 100 µM
TGI (HS 578T breast): > 100 µM
TGI (MCF7 breast): > 100 µM
TGI (OVCAR-8 ovarian): > 100 µM
TGI (SK-MEL-2 melanoma): > 100 µM
TGI (SN12C renal): > 100 µM
TGI (UACC-257 melanoma): > 100 µM
TGI (UO-31 renal): > 100 µM

Nc1no[n+]([O-])c1-c1nnc2c(n1)-c1ccccc1C2=O
GI50 (A498 renal): 22.2 µM
TGI (A498 renal): 63.2 µM
GI50 (CAKI-1 renal): 2.3 µM
TGI (CAKI-1 renal): 6.67 µM
GI50 (HOP-62 NSCLC): 2.74 µM
TGI (HOP-62 NSCLC): 10 µM
GI50 (HS 578T breast): 5.58 µM
TGI (HS 578T breast): 65 µM
GI50 (MCF7 breast): 1.55 µM
TGI (MCF7 breast): 3.94 µM
GI50 (OVCAR-8 ovarian): 3.19 µM
TGI (OVCAR-8 ovarian): 10.4 µM
GI50 (SK-MEL-2 melanoma): 9.13 µM
TGI (SK-MEL-2 melanoma): 24.4 µM
GI50 (SN12C renal): 1.86 µM
TGI (SN12C renal): 3.51 µM
GI50 (UACC-257 melanoma): 1.93 µM
TGI (UACC-257 melanoma): 3.98 µM
GI50 (UO-31 renal): 2.25 µM
TGI (UO-31 renal): 6.75 µM

Cc1cn2c(/C=C3\C(=O)N(C)c4ccc(Cl)cc43)c(C)nc2s1
GI50 (A498 renal): 10.8 µM
TGI (A498 renal): > 100 µM
GI50 (CAKI-1 renal): 3.11 µM
TGI (CAKI-1 renal): > 100 µM
GI50 (HOP-62 NSCLC): 5.6 µM
TGI (HOP-62 NSCLC): 72 µM
GI50 (HS 578T breast): 8.28 µM
TGI (HS 578T breast): > 100 µM
GI50 (MCF7 breast): 7.01 µM
TGI (MCF7 breast): 55.5 µM
GI50 (OVCAR-8 ovarian): 5.5 µM
TGI (OVCAR-8 ovarian): > 100 µM
GI50 (SK-MEL-2 melanoma): 6.81 µM
TGI (SK-MEL-2 melanoma): > 100 µM
GI50 (SN12C renal): 5.24 µM
TGI (SN12C renal): > 100 µM
GI50 (UACC-257 melanoma): 3.37 µM
TGI (UACC-257 melanoma): 38.6 µM
GI50 (UO-31 renal): 7.18 µM
TGI (UO-31 renal): 67.1 µM

C=C1C(O)C2CC(C)(C)C(=O)C2=C(CC(C)C)C12CC2 (configuration not stated)
GI50 (A498 renal): > 100 µM
TGI (A498 renal): > 100 µM
GI50 (CAKI-1 renal): > 100 µM
TGI (CAKI-1 renal): > 100 µM
GI50 (HOP-62 NSCLC): > 100 µM
TGI (HOP-62 NSCLC): > 100 µM
GI50 (HS 578T breast): > 100 µM
TGI (HS 578T breast): > 100 µM
GI50 (MCF7 breast): > 100 µM
TGI (MCF7 breast): > 100 µM
GI50 (OVCAR-8 ovarian): > 100 µM
TGI (OVCAR-8 ovarian): > 100 µM
GI50 (SK-MEL-2 melanoma): > 100 µM
TGI (SK-MEL-2 melanoma): > 100 µM
GI50 (SN12C renal): > 100 µM
TGI (SN12C renal): > 100 µM
GI50 (UACC-257 melanoma): > 100 µM
TGI (UACC-257 melanoma): > 100 µM
GI50 (UO-31 renal): > 100 µM
TGI (UO-31 renal): > 100 µM

NCCCNc1nc2ccccc2c2c(=O)c3cc(F)cc(Cl)c3sc12
GI50 (A498 renal): 2.11 µM
TGI (A498 renal): 7.04 µM
GI50 (CAKI-1 renal): 1.58 µM
TGI (CAKI-1 renal): 2.95 µM
GI50 (HOP-62 NSCLC): 1.77 µM
TGI (HOP-62 NSCLC): 3.9 µM
GI50 (HS 578T breast): 1.68 µM
TGI (HS 578T breast): 3.62 µM
GI50 (MCF7 breast): 1.19 µM
TGI (MCF7 breast): 2.68 µM
GI50 (OVCAR-8 ovarian): 1.81 µM
TGI (OVCAR-8 ovarian): 3.83 µM
GI50 (SK-MEL-2 melanoma): 8.86 µM
TGI (SK-MEL-2 melanoma): 24 µM
GI50 (SN12C renal): 1.71 µM
TGI (SN12C renal): 3.24 µM
GI50 (UACC-257 melanoma): 3.29 µM
TGI (UACC-257 melanoma): 11.2 µM
GI50 (UO-31 renal): 1.47 µM
TGI (UO-31 renal): 2.84 µM

O=C(O)c1[nH]c2c([N+](=O)[O-])cc([N+](=O)[O-])cc2c1C(=O)O
TGI (A498 renal): > 100 µM
TGI (CAKI-1 renal): > 100 µM
TGI (HOP-62 NSCLC): > 100 µM
TGI (HS 578T breast): > 100 µM
TGI (MCF7 breast): > 100 µM
TGI (OVCAR-8 ovarian): > 100 µM
TGI (SK-MEL-2 melanoma): > 100 µM
TGI (SN12C renal): > 100 µM
TGI (UACC-257 melanoma): > 100 µM
TGI (UO-31 renal): > 100 µM

COc1cc(NCCC2CCCCN2)c2ncccc2c1OC (configuration not stated)
GI50 (A498 renal): 22.6 µM
TGI (A498 renal): 41.8 µM
GI50 (CAKI-1 renal): 9.56 µM
TGI (CAKI-1 renal): 30.2 µM
GI50 (HOP-62 NSCLC): 17.3 µM
TGI (HOP-62 NSCLC): 32.4 µM
GI50 (HS 578T breast): 4.34 µM
TGI (HS 578T breast): 31.1 µM
GI50 (MCF7 breast): 3.19 µM
TGI (MCF7 breast): 15.2 µM
GI50 (OVCAR-8 ovarian): 6.49 µM
TGI (OVCAR-8 ovarian): 59.2 µM
GI50 (SK-MEL-2 melanoma): 3.13 µM
TGI (SK-MEL-2 melanoma): 9.07 µM
GI50 (SN12C renal): 2.23 µM
TGI (SN12C renal): 6.77 µM
GI50 (UACC-257 melanoma): 2.79 µM
TGI (UACC-257 melanoma): 9.36 µM
GI50 (UO-31 renal): 14.9 µM
TGI (UO-31 renal): 36.7 µM

O=C(Nc1cc2cc([N+](=O)[O-])ccc2oc1=O)c1cccs1
TGI (A498 renal): > 100 µM
TGI (CAKI-1 renal): > 100 µM
TGI (HOP-62 NSCLC): > 100 µM
TGI (HS 578T breast): > 100 µM
TGI (MCF7 breast): 85.2 µM
TGI (OVCAR-8 ovarian): > 100 µM
TGI (SK-MEL-2 melanoma): > 100 µM
TGI (SN12C renal): > 100 µM
TGI (UACC-257 melanoma): > 100 µM
TGI (UO-31 renal): > 100 µM
